Reference: ChEMBL document CHEMBL1201862, “PubChem BioAssay data set” (2004)
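Step 1: Grow cells in 96-well plates. Step 2: Expose to compound for 48 hours at 5 concentrations. Step 3: Interpolate endpoints linearly; if unreached, use highest concentration. GI50 is the concentration that inhibits growth by half.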 Active and inactive are the calls of the source. No stated cut-off is given here; in the data, active = GI50 up to about 1.1 µM and inactive = higher. *1 amine or outer side, *2 acyl side, *3 side chain or, on linkers, in order; H or OH if unused. Where a SMILES comes first, the peptide text is derived from it. Bridges are numbered along the chain shown (N, C = ends). Roman numbers before positions name the chains, in order. [ ]: non-standard residue; d: D form. Actinocin(9to1) = Cc1c2oc3c(C)ccc(C(=O)[*:1])c3nc-2c(C(=O)[*:2])c(N)c1=O; Hyp = O=C(O)[CH]1C[CH](O)CN1; NMeV = CN[CH](C(=O)O)C(C)C; Sar = CNCC(=O)O

Experiments:
Assay in all cases: NCI anticancer screen, dose series, 48 h
SK-MEL-2 = tested on: SK-MEL-2
HOP-62 = tested on: HOP-62
LOX IMVI = tested on: LOX IMVI
T47D = tested on: T47D
M14 = tested on: M14
RPMI-8226 = tested on: RPMI-8226
HCC 2998 = tested on: HCC 2998
SF-295 = tested on: SF-295
Hs-578T = tested on: Hs-578T
CCRF-CEM = tested on: CCRF-CEM
SNB-19 = tested on: SNB-19
IGROV-1 = tested on: IGROV-1
EKVX = tested on: EKVX
SF-268 = tested on: SF-268
SK-OV-3 = tested on: SK-OV-3
HOP-92 = tested on: HOP-92
NCI/ADR-RES = tested on: NCI/ADR-RES
ACHN = tested on: ACHN
COLO 205 = tested on: COLO 205
MDA-MB-231 = tested on: MDA-MB-231
HL-60 = tested on: HL-60
A549 = tested on: A549
Malme-3M = tested on: Malme-3M
A498 = tested on: A498
MDA-MB-435 = tested on: MDA-MB-435
CAKI-1 = tested on: CAKI-1
OVCAR-4 = tested on: OVCAR-4
NCI-H226 = tested on: NCI-H226
MDA-N = tested on: MDA-N
SF-539 = tested on: SF-539
MCF7 = tested on: MCF7
NCI-H460 = tested on: NCI-H460
SK-MEL-5 = tested on: SK-MEL-5
DU-145 = tested on: DU-145
NCI-H522 = tested on: NCI-H522
OVCAR-5 = tested on: OVCAR-5
K562 = tested on: K562
NCI-H23 = tested on: NCI-H23
SNB-75 = tested on: SNB-75
PC-3 = tested on: PC-3
U-251 = tested on: U-251
OVCAR-8 = tested on: OVCAR-8
HT-29 = tested on: HT-29
UO-31 = tested on: UO-31
786-0 = tested on: 786-0
SN12C = tested on: SN12C
SK-MEL-28 = tested on: SK-MEL-28
HCT-15 = tested on: HCT-15
UACC-257 = tested on: UACC-257
OVCAR-3 = tested on: OVCAR-3
RXF 393 = tested on: RXF 393
SR = tested on: SR
KM12 = tested on: KM12
HCT-116 = tested on: HCT-116
TK-10 = tested on: TK-10
MOLT-4 = tested on: MOLT-4
SW-620 = tested on: SW-620
UACC-62 = tested on: UACC-62

Cc1c2oc3c(C)ccc(C(=O)NC4C(=O)NC(C(C)C)C(=O)N5CC(O)CC5C(=O)N(C)CC(=O)N(C)C(C(C)C)C(=O)OC4C)c3nc-2c(C(=O)NC2C(=O)NC(C(C)C)C(=O)N3CC(O)CC3C(=O)N(C)CC(=O)N(C)C(C(C)C)C(=O)OC2C)c(N)c1=O (centres undefined) (I: TV[Hyp][Sar][NMeV] / II: TV[Hyp][Sar][NMeV]; ester I:1-I:C, II:1-II:C; linker I:N-II:N via Actinocin(9to1); configuration not given here)
GI50 (SK-MEL-2): > 1000 nM (active) | GI50 (HOP-62): > 1000 nM (active) | GI50 (LOX IMVI): > 1000 nM (active) | GI50 (T47D): > 1000 nM (active) | GI50 (M14): > 1000 nM (active) | GI50 (RPMI-8226): > 1000 nM (active) | GI50 (HCC 2998): > 1000 nM (active) | GI50 (SF-295): > 1000 nM (active) | GI50 (Hs-578T): > 1000 nM (active) | GI50 (CCRF-CEM): > 1000 nM (active) | GI50 (SNB-19): > 1000 nM (active) | GI50 (IGROV-1): > 1000 nM (active) | GI50 (EKVX): > 1000 nM (active) | GI50 (SF-268): > 1000 nM (active) | GI50 (SK-OV-3): > 1000 nM (active) | GI50 (HOP-92): > 1000 nM (active) | GI50 (NCI/ADR-RES): > 1000 nM (active) | GI50 (ACHN): > 1000 nM (active) | GI50 (COLO 205): > 1000 nM (active) | GI50 (MDA-MB-231): > 1000 nM (active) | GI50 (HL-60): > 1000 nM (active) | GI50 (A549): > 1000 nM (active) | GI50 (Malme-3M): > 1000 nM (active) | GI50 (A498): > 1000 nM (active) | GI50 (MDA-MB-435): > 1000 nM (active) | GI50 (CAKI-1): > 1000 nM (active) | GI50 (OVCAR-4): > 1000 nM (active) | GI50 (NCI-H226): > 1000 nM (active) | GI50 (MDA-N): > 1000 nM (active) | GI50 (SF-539): > 1000 nM (active) | GI50 (MCF7): > 1000 nM (active) | GI50 (NCI-H460): > 1000 nM (active) | GI50 (SK-MEL-5): > 1000 nM (active) | GI50 (DU-145): > 1000 nM (active) | GI50 (NCI-H522): 52.2 nM (active) | GI50 (OVCAR-5): > 1000 nM (active) | GI50 (K562): > 1000 nM (active) | GI50 (NCI-H23): > 1000 nM (active) | GI50 (SNB-75): > 1000 nM (active) | GI50 (PC-3): > 1000 nM (active) | GI50 (U-251): > 1000 nM (active) | GI50 (OVCAR-8): > 1000 nM (active) | GI50 (HT-29): > 1000 nM (active) | GI50 (UO-31): > 1000 nM (active) | GI50 (786-0): > 1000 nM (active) | GI50 (SN12C): > 1000 nM (active) | GI50 (SK-MEL-28): > 1000 nM (active) | GI50 (HCT-15): > 1000 nM | GI50 (UACC-257): > 1000 nM (active) | GI50 (OVCAR-3): > 1000 nM (active) | GI50 (RXF 393): > 1000 nM (active) | GI50 (SR): 748 nM (active) | GI50 (KM12): > 1000 nM (active) | GI50 (HCT-116): > 1000 nM (active) | GI50 (TK-10): > 1000 nM (active) | GI50 (MOLT-4): > 1000 nM (active) | GI50 (SW-620): > 1000 nM (active)

N#Cc1nc(CCC(c2nc(C#N)c(N)o2)N2C(=O)c3ccccc3C2=O)oc1N (centres undefined)
GI50 (SK-MEL-2): > 100000 nM (inactive) | GI50 (HOP-62): > 100000 nM (inactive) | GI50 (LOX IMVI): > 100000 nM (inactive) | GI50 (T47D): > 100000 nM (inactive) | GI50 (M14): > 100000 nM (inactive) | GI50 (RPMI-8226): > 100000 nM (inactive) | GI50 (HCC 2998): > 100000 nM (inactive) | GI50 (SF-295): > 100000 nM (inactive) | GI50 (Hs-578T): > 100000 nM (inactive) | GI50 (CCRF-CEM): > 10000 nM (inactive) | GI50 (SNB-19): > 100000 nM (inactive) | GI50 (IGROV-1): > 100000 nM (inactive) | GI50 (EKVX): > 100000 nM (inactive) | GI50 (SF-268): > 100000 nM (inactive) | GI50 (SK-OV-3): > 100000 nM (inactive) | GI50 (HOP-92): > 100000 nM (inactive) | GI50 (NCI/ADR-RES): > 100000 nM (inactive) | GI50 (ACHN): > 100000 nM (inactive) | GI50 (COLO 205): > 100000 nM (inactive) | GI50 (MDA-MB-231): > 100000 nM (inactive) | GI50 (HL-60): > 100000 nM (inactive) | GI50 (A549): > 100000 nM (inactive) | GI50 (Malme-3M): > 100000 nM (inactive) | GI50 (A498): > 100000 nM (inactive) | GI50 (MDA-MB-435): > 100000 nM (inactive) | GI50 (CAKI-1): > 100000 nM (inactive) | GI50 (OVCAR-4): 67600 nM (inactive) | GI50 (NCI-H226): > 100000 nM (inactive) | GI50 (MDA-N): > 100000 nM (inactive) | GI50 (SF-539): > 100000 nM (inactive) | GI50 (MCF7): > 100000 nM (inactive) | GI50 (NCI-H460): > 100000 nM (inactive) | GI50 (SK-MEL-5): > 100000 nM (inactive) | GI50 (UACC-62): > 100000 nM (inactive) | GI50 (DU-145): > 100000 nM (inactive) | GI50 (NCI-H522): > 100000 nM (inactive) | GI50 (OVCAR-5): > 100000 nM (inactive) | GI50 (K562): 32800 nM (inactive) | GI50 (NCI-H23): > 100000 nM (inactive) | GI50 (SNB-75): > 100000 nM (inactive) | GI50 (PC-3): > 100000 nM (inactive) | GI50 (U-251): > 100000 nM (inactive) | GI50 (HT-29): > 100000 nM (inactive) | GI50 (UO-31): > 100000 nM (inactive) | GI50 (786-0): > 100000 nM (inactive) | GI50 (SN12C): > 100000 nM (inactive) | GI50 (SK-MEL-28): > 100000 nM (inactive) | GI50 (HCT-15): > 100000 nM | GI50 (UACC-257): > 100000 nM (inactive) | GI50 (OVCAR-3): > 100000 nM (inactive) | GI50 (RXF 393): > 100000 nM (inactive) | GI50 (SR): < 10 nM (active) | GI50 (KM12): > 100000 nM (inactive) | GI50 (HCT-116): > 100000 nM (inactive) | GI50 (TK-10): > 100000 nM (inactive) | GI50 (MOLT-4): 27800 nM (inactive) | GI50 (SW-620): > 100000 nM (inactive)
